Paper PMC4741889, “Ligand-based chemoinformatic discovery of a novel small molecule inhibitor targeting CDC25 dual specificity phosphatases and displaying in vitro efficacy against melanoma cells” (Oncotarget, 2015)

Tests used:
Assay type in all cases: cell-based, human
SAN cells = experiment: MTT cell growth rate, SAN melanoma cells; settings: 100 μM, 48 h, MTT
Protocol: The human melanoma cell line A2058, kindly provided by CEINGE (Naples, Italy), and SAN cells were derived from lymph nodal metastases and grown in DMEM and RPMI 1640, respectively, supplemented with 10% FBS, 2 mM L-glutamine, 100 IU/mL penicillin G, and 100 μg/mL streptomycin in humidified incubator at 37°C under 5% CO2 atmosphere. All cells were split and seeded every three days and used during the exponential phase of growth. Cell treatments were always carried after 24 h from plating.
The MTT assay was used to detect cell proliferation essentially as previously described. Briefly, A2058 and SAN cells were plated in 96-well microtiter plates (100 μL/well) at 4000 and 6000 cells/well, respectively. After 24-h seeding, cells were treated with the selected compounds added at 25, 50 or 100 μM concentration, or with 0.5% (v/v) DMSO as a vehicle control. After 24-h, 48-h or 72-h treatment, and upon the addition of 10 μL of MTT solution in the dark, the plate was incubated for 3 h at 37°C under CO2 atmosphere. After medium aspiration and solubilization of formazan crystals, absorbance was measured at 570 nm, using an ELISA plate reader (Bio-Rad, Milano, Italy).

A2058 cells [1] = experiment: Apoptosis, subdiploid DNA content by PI flow cytometry, A2058 cells
Text: PI incorporation followed by flow cytometric analysis was used to detect the effect of 7 on the number of nuclei with a sub-diploid content, a typical hallmark of apoptosis. A time-dependent increase of apoptosis was evident in both A2058 and SAN cells and in particular, the effect of 7 on cell death program was already evident after 24-h treatment (Figure 7). […] To further investigate on the capacity of 7 to induce apoptosis, the enzymatic activity of caspase-3, the final effector of apoptotic program, was monitored.
[…] After each treatment, cells were harvested with trypsin, centrifuged and the pellet was resuspended in phosphate-buffered saline (PBS). For cell cycle analysis, cells were fixed with 70% (v/v) cold ethanol and stored at −20°C for 1 h. Then, cells were washed with cold PBS, centrifuged and the pellets were resuspended in 200 μL of a non-lysis solution containing 50 μg/mL PI. For the evaluation of apoptosis, cells were not fixed in ethanol and directly resuspended in 200 μL of a hypotonic lysis solution containing 50 μg/mL PI. After incubation at 4°C for 30 min, cells were analyzed with a FACScan flow cytometer (Becton Dickinson) for evaluating the distribution in cell cycle phases or the presence of nuclei with a DNA content lower than the diploid.

A2058 cells [2] = experiment: Intracellular ROS level (DCFH-DA), A2058 cells
Protocol: The high redox reactivity of quinonoid molecules, like compound 7, could greatly perturb the intracellular redox state. […] The oxidant effect of 7 was also evaluated after cell pre-treatment with two antioxidant molecules, such as N-acetyl-cysteine (NAC) and the specific inhibitor of NADPH oxidase, apocynin. To this aim, A2058 and SAN cells were pre-incubated for 1 h with 10 mM NAC or 45 min with 0.5 mM apocynin and then treated for 4 h with 100 μM compound 7. […] The cytotoxic activity of 7 could be mediated by the observed increase of ROS level.
The intracellular ROS level was monitored using the oxidation-sensitive fluorescence probe DCFH-DA. Cells were seeded into 6-well-plates (3 × 10^5 cells/plate) for 24 h at 37°C and then treated at various times with 100 μM compound 7 or 0.5% DMSO. DCFH-DA was added in the dark at 10 μM final concentration 30-min before the end of each incubation; then, cells were collected, washed in PBS, and finally resuspended in 500 μL PBS for fluorimetric analysis. Measurements were realized in a Cary Eclipse fluorescence spectrophotometer (Varian); excitation and emission wavelengths were set at 485 nm and 530 nm, respectively; both excitation and emission slits were set at 10 nm. The effect of 7 on ROS production was also estimated after pretreatment of cells with 10 mM NAC for 1 h.

pAkt protein levels = experiment: Western blotting of pAkt (Ser473) in SAN cells; settings: 100 μM, 1 or 2 h
Protocol: The molecular mechanisms that regulate the cytotoxic potential of 7 in melanoma cells were further investigated through the evaluation of the activation state of protein kinase B (pAkt), one of the key proteins involved in the control and regulation of cell survival. To this aim, the protein levels of pAkt have been analyzed after 2- and 4-h incubation of A2058 cells with 7. […] It is known that Akt regulates the process of cell survival by phosphorylating different substrates, directly or indirectly involved in the apoptotic program. One of these targets is p53, a protein with a tumor-suppressor activity that regulates the cell cycle, as well as the expression of several genes involved in the apoptosis. […]
A2058 cells were seeded into 6-well-plates (3 × 10^5 cells/plate) for 24 h at 37°C and then treated at different times with 100 μM compound 7 or 0.5% DMSO. […] The protein concentration was determined by the method of Bradford, using bovine serum albumin (BSA) as standard. […] Membranes were then analysed by an enhanced chemiluminescence reaction, using Super Signal West Pico kit (Pierce) according to manufacturer's instruction; signals were visualized by autoradiography. […]
0.5% DMSO or 100 μM compound 7 for 1 or 2 h, were analyzed by Western blotting using an antibody raised against pAkt (Ser473). […]

## O=C(O)C1CCCCC1c1c2ccc(=O)cc-2oc2cc(O)ccc12 (centres unmarked) [Compound 7, 2-(6-hydroxy-3-oxo-3H-xanthen-9-yl)cyclohexanecarboxylic acid]
SAN cells
  cell growth rate: significant reduction of cell growth rate
A2058 cells [1]; A2058, 100 μM 7 + 100 μM Z-VAD-FMK, 48 h
  level of apoptosis caused by 7 in the presence of Z-VAD-FMK: significantly decreased
A2058 cells [1]; A2058, 100 μM, 24-72 h
  apoptosis (nuclei with sub-diploid content): increase of apoptosis became significant at 48 h
A2058 cells [1]; A2058, NAC pre-treatment, 100 μM 7, 48 h
  apoptosis after NAC pre-treatment: in a great part reverted
A2058 cells [2]; A2058, 100 μM, significant after 4 h
  intracellular ROS level: time-dependent increase of the ROS level
A2058 cells [2]; A2058, 0.5 mM apocynin 45 min, then 100 μM 7 for 4 h
  increase of ROS level after apocynin pre-treatment: did not prevent the increase of ROS level
A2058 cells [2]; A2058, 10 mM NAC 1 h, then 100 μM 7 for 4 h
  increase of ROS level after NAC pre-treatment: prevented by the NAC treatment
pAkt protein levels
  Akt activation (pAkt): early reduction of Akt activation
